In PMC6658735 (Biomaterials, 2019):

Legend:
AM microtissues [1] = system: AM microtissues
AM microtissues [2] = test: Effect of ROCK inhibitor on AM cyst formation; assay type: cell-based, human; settings: 10 μM
[3] = day 0 to day 3, control: Y27632 removed at day 1

Structure (SMILES)	toxicity on the AM development (dose-response, in words) (AM microtissues [1])	cyst morphology (AM microtissues [2]; day 0 to day 3)	lumens per cyst (EZRIN immunostaining) (AM microtissues [2]; day 0 to day 3, control has a single central lumen)	average normalized nuclear intensity of GATA3 vs untreated control (AM microtissues [2]; [3])	average normalized nuclear intensity of TFAP2A vs untreated control (AM microtissues [2]; [3])	average normalized nuclear intensity of TFAP2B vs untreated control (AM microtissues [2]; [3])
COc1cccc2c1C(=O)c1c(O)c3c(c(O)c1C2=O)C[C@@](O)(C(=O)CO)C[C@@H]3O[C@H]1C[C@H](N)[C@H](O)[C@H](C)O1 [Doxorubicin]	induces massive cell death shortly after treatment					
C[C@@H](N)[C@H]1CC[C@H](C(=O)Nc2ccncc2)CC1 [Y27632]		flattened and collapsed morphology without a visible single, central lumen	multiple EZRIN+ lumens	no significant differences	no significant differences	no significant differences
